Measurements taken from patent US9249102B2 (priority 2012, dated 2016).
Read-outs that look alike come from different tables or passages of the source.

Tests used:
[1] = tested on: microfilaria of Dirofilaria immitis; assay: Method F: microfilaria of Dirofilaria immitis, survival at 24 hours
[2] = tested on: Cooperia oncophora; assay: Method C: Cooperia oncophora L1 larvae in vitro; details: 96 h, read-out: inhibition of motility
[3] = Method G: permeability in the Caco-2/TC7 in vitro model; details: human, Caco-2, pH 6.5
[4] = tested on: Haemonchus contortus; assay: Method A: Haemonchus contortus L1 larvae, microtitre plate screen; details: 96 h, read-out: motility inhibition
[5] = survival of microfilaria at 24 hours

Structure (SMILES)	EC50 [1, 5]	inhibition at 5 µg/mL [2]	Papp A→B at 20 μM [3]	inhibition at 5 µg/mL [4]	EC50 [1]
CC(c1cc2cc(F)ccc2o1)N1CCN(C(=O)CO[C@H]2CC[C@H](Nc3ccc([N+](=O)[O-])c(C(F)(F)F)c3)CC2)CC1 (stereo partly drawn) [Compound 304, 2-[(4-[[4-nitro-3-(trifluoromethyl)phenyl]amino]cyclohexyl)-oxy]1-[4-[1-(5-fluorobenzofuran-2-yl)ethyl]piperazin-1-yl]ethan-1-one]	< 5 µg/mL	≥ 90%	9 ×10⁻⁶ cm/s	≥ 90%	–
O=C(CO[C@H]1CC[C@H](Nc2ccc([N+](=O)[O-])c(C(F)(F)F)c2)CC1)N1CCN(Cc2cc3cc(Cl)ccc3o2)CC1 [Compound 178, 1-[4-[(5-chloro-1-benzofuran-2-yl)methyl]piperazin-1-yl]-2-[(4-[[4-nitro-3-(trifluoromethyl)phenyl]amino]cyclohexyl)oxy]ethan-1-one]	< 1 µg/mL	≥ 90%	4.9 ×10⁻⁶ cm/s	≥ 90%	–
N#Cc1ccc(N[C@H]2CC[C@H](OCC(=O)N3CCN(Cc4nc5cc(C(F)(F)F)ccc5s4)CC3)CC2)cc1C(F)(F)F [Compound 301]	–	≥ 90%	9.9 ×10⁻⁶ cm/s	≥ 90%	< 0.1 µg/mL
O=C(CO[C@H]1CC[C@H](Nc2ccc([N+](=O)[O-])c(C(F)(F)F)c2)CC1)N1CCN(Cc2nc3cc(Cl)ccc3s2)CC1 [Compound 291, 1-[4-[(5-chloro-1,3-benzothiazol-2-yl)methyl]piperazin-1-yl]-2-[4-[4-nitro-3-(trifluoromethyl)anilino]cyclohexoxy]ethanone]	–	≥ 90%	6.2 ×10⁻⁶ cm/s	≥ 90%	–
O=C(CO[C@H]1CC[C@H](Nc2ccc([N+](=O)[O-])c(C(F)(F)F)c2)CC1)N1CCN(Cc2ccc3ccc(C(F)(F)F)cc3n2)CC1 [Compound 328, 2-[4-(4-nitro-3-trifluoromethyl-phenylamino)-cyclohexyloxy]-1-[4-(7-trifluoromethyl-quinolin-2-ylmethyl)-piperazin-1-yl]-ethanone]	–	≥ 90%	7.2 ×10⁻⁶ cm/s	≥ 90%	–
O=C(CO[C@H]1CC[C@H](Nc2ccc([N+](=O)[O-])c(C(F)(F)F)c2)CC1)N1CCN(Cc2cc3c(F)c(F)ccc3o2)CC1 [Compound 320, 2-[(4-[[4-nitro-3-(trifluoromethyl)phenyl]amino]cyclohexyl)-oxy]1-[4-(4,5-difluorobenzofuran-2-ylmethyl)piperazin-1-yl]ethan-1-one]	–	≥ 90%	6.8 ×10⁻⁶ cm/s	≥ 90%	–
O=C(CO[C@H]1CC[C@H](Nc2ccc([N+](=O)[O-])c(C(F)(F)F)c2)CC1)N1CCN(CC2Cc3ccccc3O2)CC1 (stereo partly drawn) [Compound 24, 1-[4-(2,3-dihydro-1-benzofuran-2-ylmethyl)piperazin-1-yl]-2-[(4-[[4-nitro-3-(trifluoromethyl)phenyl]amino]cyclohexyl)oxy]ethan-1-one]	< 1 µg/mL	–	9.7 ×10⁻⁶ cm/s	≥ 90%	–
O=C(COc1ccc(Nc2ccc([N+](=O)[O-])c(C(F)(F)F)c2)cc1)N1CCN(CC2Cc3cc(C(F)(F)F)ccc3O2)CC1 (stereo not drawn) [Compound 187, 2-(4-[[4-nitro-3-(trifluoromethyl)phenyl]amino]phenoxy)-1-(4-[[5-(trifluoromethyl)-2,3-dihydro-1-benzofuran-2-yl]methyl]piperazin-1-yl)ethan-1-one]	< 1 µg/mL	–	5.5 ×10⁻⁶ cm/s	≥ 90%	–
N#Cc1ccc(N[C@H]2CC[C@H](OCC(=O)N3CCN(Cc4cc5cc(C(F)(F)F)ccc5o4)CC3)CC2)cc1C(F)(F)F [Compound 306, 4-(4-{2-oxo-2-[4-(5-trifluoromethyl-benzofuran-2-ylmethyl)-piperazin-1-yl]-ethoxy}-cyclohexylamino)-2-trifluoromethyl-benzonitrile]	–	–	9 ×10⁻⁶ cm/s	≥ 90%	< 0.1 µg/mL
O=C(NCCO[C@H]1CC[C@H](Nc2ccc([N+](=O)[O-])c(C(F)(F)F)c2)CC1)C(=O)NCc1cc2cc(Cl)ccc2o1 [Compound 222]	< 0.1 µg/mL	–	5 ×10⁻⁶ cm/s	≥ 90%	–
